Laboratory results from US20210369677A1, “SMALL MOLECULE ACTIVATORS OF POLYCYSTIN-2 (PKD2) AND USES THEREOF” (Northwestern University, priority 2020, published 2021).

Target: T1, polycystin-2 (Homo sapiens, UniProt Q13563, C331S/C344S)
T1 construct: expressed in transfected cells
T1 sequence (Q13563 1-968 C331S/C344S): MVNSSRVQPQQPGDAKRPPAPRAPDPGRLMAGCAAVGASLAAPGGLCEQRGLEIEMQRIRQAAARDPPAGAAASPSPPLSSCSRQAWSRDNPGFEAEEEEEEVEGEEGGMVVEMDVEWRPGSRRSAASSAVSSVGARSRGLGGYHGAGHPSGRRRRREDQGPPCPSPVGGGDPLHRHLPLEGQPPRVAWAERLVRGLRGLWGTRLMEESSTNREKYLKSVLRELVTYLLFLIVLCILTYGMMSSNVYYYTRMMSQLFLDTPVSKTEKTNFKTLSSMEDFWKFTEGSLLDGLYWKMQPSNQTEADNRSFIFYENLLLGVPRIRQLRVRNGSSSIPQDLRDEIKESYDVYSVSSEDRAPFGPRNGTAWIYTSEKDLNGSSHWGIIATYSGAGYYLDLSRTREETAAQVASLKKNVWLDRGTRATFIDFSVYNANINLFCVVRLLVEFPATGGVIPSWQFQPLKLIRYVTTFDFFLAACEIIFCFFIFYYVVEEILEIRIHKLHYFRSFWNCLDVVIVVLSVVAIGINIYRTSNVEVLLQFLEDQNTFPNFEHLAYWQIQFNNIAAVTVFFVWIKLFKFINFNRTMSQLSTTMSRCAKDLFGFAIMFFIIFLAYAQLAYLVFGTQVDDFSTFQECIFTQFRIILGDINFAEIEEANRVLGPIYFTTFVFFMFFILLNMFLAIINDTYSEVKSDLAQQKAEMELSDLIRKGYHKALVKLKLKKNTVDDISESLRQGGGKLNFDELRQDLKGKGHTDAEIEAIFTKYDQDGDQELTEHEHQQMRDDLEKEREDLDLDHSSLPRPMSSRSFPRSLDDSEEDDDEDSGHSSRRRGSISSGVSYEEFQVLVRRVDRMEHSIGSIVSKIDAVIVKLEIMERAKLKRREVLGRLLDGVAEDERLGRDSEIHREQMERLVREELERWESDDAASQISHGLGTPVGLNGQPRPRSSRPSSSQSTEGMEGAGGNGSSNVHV
Format: cell-based
Details: C331S:C334S double mutant

[Gd] [gadolinium]
Effect on C331S:C334S channel cilia current: retaining its sensitivity to pore block
